According to ChEMBL document CHEMBL4190311, “Discovery of cycloalkyl-fused N-thiazol-2-yl-benzamides as tissue non-specific glucokinase activators: Design, synthesis, and biological evaluation” (Eur J Med Chem, 2017):
The source made the active and inactive calls. No cut-off for these calls is given here.

Experiments:
Hexokinase-4 [1] = molecular target: T1, Hexokinase-4 (Homo sapiens, UniProt P35557); assay: Activation of recombinant human liver glucokinase 2 assessed as […] in presence of 5 mM glucose by G6PDH coupled assay
T1 sequence (P35557 whole entry): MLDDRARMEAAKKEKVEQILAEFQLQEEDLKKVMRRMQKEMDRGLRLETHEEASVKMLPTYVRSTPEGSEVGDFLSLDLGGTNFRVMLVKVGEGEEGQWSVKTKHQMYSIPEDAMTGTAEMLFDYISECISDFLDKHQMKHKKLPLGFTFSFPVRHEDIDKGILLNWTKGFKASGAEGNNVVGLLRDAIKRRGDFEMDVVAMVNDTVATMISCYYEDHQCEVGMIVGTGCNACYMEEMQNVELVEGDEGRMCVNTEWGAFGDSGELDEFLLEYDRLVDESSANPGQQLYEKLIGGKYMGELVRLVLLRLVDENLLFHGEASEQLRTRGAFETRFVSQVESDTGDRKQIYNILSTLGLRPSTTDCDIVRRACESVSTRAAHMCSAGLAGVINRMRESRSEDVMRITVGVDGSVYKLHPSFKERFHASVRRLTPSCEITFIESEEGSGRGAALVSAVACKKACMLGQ

Hepatocyte = assay: Increase in glucose uptake in mouse primary hepatocytes assessed as glucose uptake level at 20 uM after 24 hrs by glucose oxidase method relative to control; type: functional
[2] = molecular target: T2, Hexokinase-4 (Rattus norvegicus) (UniProt P17712); assay: Activation of glucokinase in rat INS1(832/13) cells assessed as increase in glucose sensitive insulin secretion at 20 uM after 2 hrs in presence of 5.5 mM glucose by AlphaLISA method relative to control; type: cell-based
T2 sequence (whole entry): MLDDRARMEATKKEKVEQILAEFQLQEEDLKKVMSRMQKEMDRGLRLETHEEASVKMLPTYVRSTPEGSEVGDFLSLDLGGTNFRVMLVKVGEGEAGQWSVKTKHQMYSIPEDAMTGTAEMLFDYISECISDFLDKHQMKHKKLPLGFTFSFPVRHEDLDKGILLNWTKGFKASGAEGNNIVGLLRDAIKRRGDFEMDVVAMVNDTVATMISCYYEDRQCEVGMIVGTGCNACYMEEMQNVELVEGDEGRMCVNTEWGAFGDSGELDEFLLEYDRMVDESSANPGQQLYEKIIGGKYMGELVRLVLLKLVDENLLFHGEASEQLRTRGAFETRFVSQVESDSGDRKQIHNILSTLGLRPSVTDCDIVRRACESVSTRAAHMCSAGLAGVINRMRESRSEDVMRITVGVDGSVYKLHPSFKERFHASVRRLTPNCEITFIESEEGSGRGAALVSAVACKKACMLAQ

INS1(832/13) [3] = assay: Cytoprotection in rat INS1(832/13) cells assessed as reduction in streptozocin induced beta cells apoptosis after 20 hrs by MTT based spectrophotometric method; type: functional, cell-based; settings: INS-1 832/13, 20 h
Hexokinase-4 [4] = molecular target: T1, Hexokinase-4; assay: Activation of recombinant human liver glucokinase 2 assessed as assessed as reduction in Km for glucose in presence of 5 mM glucose by G6PDH coupled assay
INS1(832/13) [5] = assay: Cytoprotection in rat INS1(832/13) cells assessed as reduction in streptozocin induced beta cells apoptosis after 20 hrs by MTT based spectrophotometric method relative to control; type: functional; set-up: scale not given: the % may be the effect or the level left

CCN1CCc2nc(NC(=O)c3cc(Oc4ccc(S(C)(=O)=O)cc4)cc(OC(C)COC)c3)sc2C1 (centres undefined)
EC50 (Hexokinase-4 [1]): 5420 nM

COC[C@H](C)Oc1cc(Oc2ccc(C(=O)N3CCC3)cc2)cc(C(=O)Nc2nc3c(s2)CN(C(=O)N(C)C)CC3)c1
Activity (Hepatocyte): 21%
fold change (FC) [2]: 3.52
EC50 (Hexokinase-4 [1]): 500 nM

CCOC(=O)N1CCc2nc(NC(=O)c3cc(Oc4ccc(C(=O)N5CCC5)cc4)cc(O[C@@H](C)COC)c3)sc2C1
Activity (Hepatocyte): 17%
fold change (FC) [2]: 5.45
EC50 (Hexokinase-4 [1]): 230 nM

COCC(C)Oc1cc(Oc2ccc(S(C)(=O)=O)cc2)cc(C(=O)Nc2nc3c(s2)CN(c2ccccn2)CC3)c1 (centres undefined)
EC50 (Hexokinase-4 [1]): 890 nM

COCC(C)Oc1cc(Oc2ccc(S(C)(=O)=O)nc2)cc(C(=O)Nc2nc3c(s2)CN(C(=O)OC(C)(C)C)CC3)c1 (centres undefined)
Activity (Hepatocyte): 35%
fold change (FC) [2]: 1.42
EC50 (Hexokinase-4 [1]): 200 nM

COC[C@H](C)Oc1cc(Oc2ccc(C(=O)N3CCC3)cc2)cc(C(=O)Nc2nc3c(s2)CN(c2ncccn2)CC3)c1
Activity (Hepatocyte): 14%
fold change (FC) [2]: 6.51
EC50 (Hexokinase-4 [1]): 170 nM

COC[C@H](C)Oc1cc(Oc2ccc(C(=O)N3CCC3)cc2)cc(C(=O)Nc2nc3c(s2)CN(CCO)CC3)c1
EC50 (Hexokinase-4 [1]): 4600 nM

COCC(C)Oc1cc(Oc2ccc(S(C)(=O)=O)cc2)cc(C(=O)Nc2nc3c(s2)CN(C(C)=O)CC3)c1 (centres undefined)
EC50 (Hexokinase-4 [1]): 2220 nM

COCC(C)Oc1cc(Oc2ccc(S(C)(=O)=O)cc2)cc(C(=O)Nc2nc3c(s2)CN(C)CC3)c1 (centres undefined)
EC50 (Hexokinase-4 [1]): 8420 nM

COCC(C)Oc1cc(Oc2ccc(S(C)(=O)=O)cc2)cc(C(=O)Nc2nc3c(s2)CN(c2ccccc2)CC3)c1 (centres undefined)
EC50 (Hexokinase-4 [1]): > 10000 nM

COCC(C)Oc1cc(Oc2ccc(S(=O)(=O)C3CC3)cc2)cc(C(=O)Nc2nc3c(s2)CN(C(=O)OC(C)(C)C)CC3)c1 (centres undefined)
EC50 (Hexokinase-4 [1]): 230 nM

COCC(C)Oc1cc(Oc2ccc(C(=O)N(C)C)cc2)cc(C(=O)Nc2nc3c(s2)CN(C(=O)OC(C)(C)C)CC3)c1 (centres undefined)
Activity (Hepatocyte): inactive
fold change (FC) [2]: 1.24
EC50 (Hexokinase-4 [1]): 90 nM

CC(C)(C)OC(=O)N1CCc2nc(NC(=O)c3cc(Oc4ccc(S(C)(=O)=O)cc4)cc(OC4CCCC4)c3)sc2C1
Activity (Hepatocyte): 26%
fold change (FC) [2]: inactive
EC50 (Hexokinase-4 [1]): 180 nM

CC(C)(C)OC(=O)N1CCc2nc(NC(=O)c3cc(OCc4ccccc4)cc(Oc4ccc(S(C)(=O)=O)cc4)c3)sc2C1
Activity (Hepatocyte): 21%
fold change (FC) [2]: inactive
EC50 (Hexokinase-4 [1]): 7000 nM

COCC(C)Oc1cc(Oc2ccc(S(C)(=O)=O)cc2)cc(C(=O)Nc2nc3c(s2)COCC3)c1 (centres undefined)
EC50 (Hexokinase-4 [1]): > 10000 nM

COCCN1CCc2nc(NC(=O)c3cc(Oc4ccc(C(=O)N5CCC5)cc4)cc(O[C@@H](C)COC)c3)sc2C1
Activity (Hepatocyte): 13%
fold change (FC) [2]: 6.07
EC50 (Hexokinase-4 [1]): 210 nM

CC(C)(C)OC(=O)N1CCc2nc(NC(=O)c3cc(OCC4CCCC4)cc(Oc4ccc(S(C)(=O)=O)cc4)c3)sc2C1
EC50 (Hexokinase-4 [1]): > 10000 nM

COCC(C)Oc1cc(Oc2ccc(C(=O)N3CCC3)cc2)cc(C(=O)Nc2nc3c(s2)CN(C(=O)OC(C)(C)C)CC3)c1 (centres undefined)
Activity (Hepatocyte): 33%
EC50 (INS1(832/13) [3]): 680 nM
EC50 (Hexokinase-4 [4]): 150 nM
fold change (FC) [2]: 2.29
EC50 (Hexokinase-4 [1]): 290 nM
Activity (INS1(832/13) [5]): 180%

COC[C@H](C)Oc1cc(Oc2ccc(C(=O)N3CCC3)cc2)cc(C(=O)Nc2nc3c(s2)CN(c2ccncn2)CC3)c1
Activity (Hepatocyte): 16%
fold change (FC) [2]: 4.62
EC50 (Hexokinase-4 [1]): 490 nM

CCS(=O)(=O)c1ccc(Oc2cc(OC(C)COC)cc(C(=O)Nc3nc4c(s3)CN(C(=O)OC(C)(C)C)CC4)c2)cc1 (centres undefined)
Activity (Hepatocyte): 34%
fold change (FC) [2]: inactive
EC50 (Hexokinase-4 [1]): 140 nM

COCC(C)Oc1cc(Oc2ccc(S(C)(=O)=O)cc2)cc(C(=O)Nc2nc3c(s2)CN(c2ccncc2)CC3)c1 (centres undefined)
Activity (Hepatocyte): inactive
fold change (FC) [2]: 1.3
EC50 (Hexokinase-4 [1]): 210 nM

COC[C@H](C)Oc1cc(Oc2ccc(C(=O)N3CCC3)cc2)cc(C(=O)Nc2nc3c(s2)CN(c2ccccn2)CC3)c1
Activity (Hepatocyte): 15%
fold change (FC) [2]: 2.47
EC50 (Hexokinase-4 [1]): 290 nM

COCC(C)Oc1cc(Oc2ccc(S(C)(=O)=O)cc2)cc(C(=O)Nc2nc3c(s2)CN(C(=O)OC(C)(C)C)CC3)c1 (centres undefined)
Activity (Hepatocyte): 36%
fold change (FC) [2]: 1.72
EC50 (Hexokinase-4 [1]): 320 nM
